# Read-outs that look alike come from different tables or passages of the source.
# Assays:
# [1] = test system: heart-derived giant vesicles; test: glucose uptake by giant vesicles (intrinsic transporter activity); format: biochemical, rat; details: for glucose uptake into giant vesicles inhibited: inhibitor 10 µM
# [2] = test system: Akt/PKB; format: cell-based, rat; details: for effect on Akt/PKB phosphorylation: 20 min
# [3] = test system: cardiac myocytes
# [4] = test system: cardiac myocytes; details: for effect on LCFA uptake: in the absence or in the presence of insulin or arsenite, SB202190 (10 µM), PD98059 (10 µM), rapamycin (100 nM)
# [5] = test system: p38 MAPK
# [6] = test system: p42/44 ERK
# [7] = test system: p70 S6K
# [8] = test system: ACC
# [9] = test system: CD36; format: cell-based, rat
# [10] = test system: FABPpm; format: cell-based, rat
# [11] = test system: GLUT4
# [12] = test system: cardiac myocytes; test: tissue or blood; details: Rattus norvegicus
# [13] = test system: p38 MAPK; test: cells; details: Rattus norvegicus, 20 min, read-out: increase in p38 MAPK phosphorylation
# [14] = test system: AMPK; test: cells; details: Rattus norvegicus, 20 min, read-out: increase in phosphorylation of AMPK
# [15] = test system: ACC; test: cells; details: Rattus norvegicus, 20 min, read-out: increase in phosphorylation of ACC
# [16] = test system: heart-derived giant vesicles; format: biochemical, rat
# [17] = test system: AMPK; details: 20 min
# [18] = SB202190, PD98059 10 µM, rapamycin 20 nM, wortmannin 200 nM, stimulus 100 nM insulin
# [19] = PD98059 (10 µM), rapamycin (100 nM), wortmannin (200 nM), no stimulus
# [20] = SB202190, SB203580, PD98059 10 µM, rapamycin 20 nM, stimulus 100 µM arsenite
# [21] = SB202190, PD98059 10 µM, rapamycin 20 nM, wortmannin 200 nM, stimulus 50 µM phenylephrine
# [22] = SB202190, PD98059 10 µM, rapamycin 20 nM, wortmannin 200 nM, stimulus 100 µM arsenite
# [23] = SB202190, PD98059 10 µM, rapamycin 20 nM, wortmannin 200 nM, stimulus 5 µM oligomycin
# [24] = 10 µM SB202190 added 20 min prior to 100 µM arsenite
# [25] = read-out: basal glucose uptake inhibited
# [26] = read-out: glucose uptake inhibited in cardiac myocytes
# [27] = read-out: glucose uptake inhibited in the presence of arsenite
# [28] = read-out: glucose uptake inhibited in the presence of insulin
molecule,measurement,setting,value
COc1cccc(-c2cc(=O)c3ccccc3o2)c1N [PD98059],effect on glucose uptake into giant vesicles,"[1]; same concentrations as in cardiac myocyte studies, added 20 min prior",did not alter
same,inhibition of insulin-induced Akt/PKB phosphorylation,[2]; [18],did not inhibit
same,effect on arsenite-stimulated glucose uptake,"[3]; PD98059 (10 µM), rapamycin (100 nM), wortmannin (200 nM), 100 µM arsenite",neither PD98059 nor rapamycin affected glucose uptake
same,effect on insulin-stimulated glucose uptake,"[3]; PD98059 (10 µM), rapamycin (100 nM), wortmannin (200 nM), insulin",neither PD98059 nor rapamycin affected glucose uptake
same,effect on basal glucose uptake,[3]; [19],no effect
same,effect on LCFA uptake,[4],"neither SB202190, nor PD98059 or rapamycin were able to influence"
same,inhibition of arsenite-stimulated p38 MAPK phosphorylation,[5]; [20],did not inhibit
same,inhibition of phenylephrine-induced p42/44 ERK phosphorylation,[6]; [21],completely inhibited
same,inhibition of arsenite-induced p70 S6K phosphorylation,[7]; [22],did not inhibit
same,inhibition of oligomycin-induced ACC phosphorylation,[8]; [23],did not inhibit
Oc1ccc(-c2nc(-c3ccncc3)c(-c3ccc(F)cc3)[nH]2)cc1 [SB202190],glucose uptake into giant vesicles inhibited,[1]; added 20 min prior,-27%
same,effect on subcellular distribution of CD36,[9]; [24],did not influence
same,effect on subcellular distribution of FABPpm,[10]; [24],did not influence
same,inhibition of insulin-induced Akt/PKB phosphorylation,[2]; [18],did not affect
same,effect on LCFA uptake,[4],"neither SB202190, nor PD98059 or rapamycin were able to influence"
same,effect on arsenite-induced GLUT4 translocation,[11]; [24],did not affect
same,inhibition of arsenite-stimulated p38 MAPK phosphorylation,[5]; [20],largely inhibited
same,inhibition of phenylephrine-induced p42/44 ERK phosphorylation,[6]; [21],did not affect
same,inhibition of arsenite-induced p70 S6K phosphorylation,[7]; [22],did not affect
same,inhibition of oligomycin-induced ACC phosphorylation,[8]; [23],did not affect
same,inhibition at 10 µM,[12]; [25],-45%
same,inhibition at 10 µM,[12]; [26],-33%
same,inhibition at 10 µM,[12]; [27],-42%
same,inhibition at 10 µM,[12]; [28],-33%
C[S+]([O-])c1ccc(-c2nc(-c3ccncc3)c(-c3ccc(F)cc3)[nH]2)cc1 (stereo not drawn) [SB203580],glucose uptake into giant vesicles inhibited,[1]; added 20 min prior,-46%
same,inhibition of arsenite-stimulated p38 MAPK phosphorylation,[5],similarly potent in blocking
same,inhibition at 10 µM,[12]; [25],-56%
same,inhibition at 10 µM,[12]; [26],-56%
same,inhibition at 10 µM,[12]; [27],-57%
same,inhibition at 10 µM,[12]; [28],-46%
CC[C@H]1/C=C/C=C/C[C@@H](C)[C@H](O)[C@@](C)(O)C(=O)[C@@H](C)[C@H](O)[C@@H](C)C(=O)[C@@H](C)[C@H](O)[C@@H](C)/C=C/C(=O)O[C@@H]2[C@H](C)[C@H](CC1)O[C@]1(CC[C@H](C)[C@H](C[C@@H](C)O)O1)[C@H]2C [oligomycin],effect on Akt/PKB phosphorylation,[2]; 5 µM oligomycin or 100 µM arsenite,did not increase
same,effect on p42/44 ERK phosphorylation,"[6]; 20 min, 5 µM oligomycin",did not increase
same,effect on p70 S6K phosphorylation,[7]; oligomycin,did not enhance
same,fold induction at 5 µM,[13],5.7 ± 1.5
same,fold induction at 5 µM,[14],> 10
same,fold induction at 5 µM,[15],> 10
same,fold induction at 5 µM,[12]; read-out: glucose uptake increased,2.9
CO[C@H]1C[C@@H]2CC[C@@H](C)[C@@](O)(O2)C(=O)C(=O)N2CCCC[C@H]2C(=O)O[C@H]([C@H](C)C[C@@H]2CC[C@@H](O)[C@H](OC)C2)CC(=O)[C@H](C)/C=C(\C)[C@@H](O)[C@@H](OC)C(=O)[C@H](C)C[C@H](C)/C=C/C=C/C=C/1C [rapamycin],effect on basal glucose uptake,[3]; [19],no effect
COC[C@H]1OC(=O)c2coc3c2[C@@]1(C)C1=C(C3=O)[C@@H]2CCC(=O)[C@@]2(C)C[C@H]1OC(C)=O [wortmannin],effect on glucose uptake into giant vesicles,[1],did not alter
same,inhibition of insulin-induced Akt/PKB phosphorylation,[2],completely blocked
same,effect on arsenite-stimulated glucose uptake,[3],completely failed to inhibit
same,effect on basal glucose uptake,[3],did not inhibit
same,effect on insulin-stimulated glucose uptake,[3],largely blocked
same,effect on basal LCFA uptake,[4],no effect
same,effect on insulin-induced LCFA uptake,[4],completely blocked
same,inhibition of phenylephrine-induced p42/44 ERK phosphorylation,[6],unaltered
same,inhibition of arsenite-induced p70 S6K phosphorylation,[7],completely blocked
same,inhibition of oligomycin-induced ACC phosphorylation,[8],unaltered
sodium arsenite,effect on glucose uptake into giant vesicles,[1],did not influence
same,effect on LCFA uptake into giant vesicles,[16],did not influence
same,contents of CD36 in the LDM- and PM fractions,[9]; 20 min,did not significantly influence
same,distribution of FABPpm between the LDM and the PM fraction,[10]; 20 min,did not significantly influence
same,effect on Akt/PKB phosphorylation,[2],did not stimulate
same,deoxyglucose uptake,[3],without a further increase
same,effect of arsenite on glucose uptake in combination with oligomycin,[3],retained its stimulatory action
same,effect of arsenite on glucose uptake in insulin-stimulated cardiac myocytes,[3],ineffective
same,deoxyglucose uptake stimulated,"[3]; cardiac myocytes, 20 min, 100 µM",5.1 fold
same,LCFA uptake,[4],did not increase
same,effect of arsenite on LCFA uptake in combination with insulin or oligomycin,[4],did not significantly alter
same,content of GLUT4 in the LDM fraction decreased,[11]; 20 min,44%
same,content of GLUT4 in the PM fraction increased,"[11]; 20 min, 100 µM",1.7 fold
same,increase in p38 MAPK phosphorylation,[5]; 20 min,7.8 ± 1.8 fold
same,increase in p42/44 ERK phosphorylation,"[6]; 20 min, 100 µM",2.3 ± 0.5 fold
same,increase in p70 S6K phosphorylation,"[7]; 20 min, 100 µM",3.3 ± 0.7 fold
same,effect on phosphorylation of AMPK,[17],remained unaltered
same,effect on phosphorylation of ACC,[8]; 20 min,remained unaltered
